Eleven compounds from PubChem BioAssay AID1259408 (Genetic Toxicology Data Bank (GENE-TOX), 2018) can be followed below.

The subject of the series is GENE-TOX genotoxicity assays, various organisms and cells. Description: GENE-TOX mutagenicity studies. The settings on record: for call: Assay Type: In vivo carcinogenicity studies.
[1] abbreviates: Species/Cell Type: Drosophila melanogaster, Assay Type: Sex-linked recessive lethal gene mutation, Assay Code: SRL-, Evaluation Type: Evaluation A (Pre-1980).
The mark [2] stands for this setting: Species/Cell Type: Human lymphocytes, Assay Type: Sister-chromatid exchange (SCE) in vitro, Assay Code: SCL+D, Dose Response: With dose response, Evaluation Type: Evaluation B (Post-1980).
The mark [3] stands for this setting: Species/Cell Type: Human, Assay Type: Sister-chromatid exchange (SCE) in vitro, Assay Code: SC1+D, Dose Response: With dose response, Evaluation Type: Evaluation B (Post-1980).
Where [4] appears, read: Species/Cell Type: Nonhuman, Assay Code: CCGT, Evaluation Type: Evaluation A (Pre-1980).
The mark [5] stands for this setting: Species/Cell Type: Nonhuman, Assay Type: Sister-chromatid exchange (SCE) in vivo, Assay Code: SC3+, Evaluation Type: Evaluation B (Post-1980).

Calls of active or inactive are those of the source. No rule for the calls is given here.

`O=C(O)COc1ccc(Cl)cc1Cl`: the mutagenic call is, setting by setting: (Species/Cell Type: Allium cepa, Assay Type: Chromosome aberrations, Assay Code: ALC+, Evaluation Type: Evaluation A (Pre-1980)) “active; positive”; (Species/Cell Type: Bacillus subtilis (H17 vs M45), Assay Type: Rec-assay, spot test, DNA effects (bacterial DNA repair), Assay Code: REW+, Evaluation Type: Evaluation A (Pre-1980)) “active; positive”; (Species/Cell Type: Chinese hamster lung (V79) cells, Assay Type: Forward gene mutation at the HPRT or ouabain locus, Assay Code: V79+, Evaluation Type: Evaluation A (Pre-1980)) “active; positive”; (Species/Cell Type: Drosophila melanogaster, Assay Type: Aneuploidy, sex chromosome gain, chromosome aberrations, Assay Code: DAG-M-F, Evaluation Type: Evaluation A (Pre-1980)) “inactive; negative”; (Species/Cell Type: Drosophila melanogaster, Assay Type: Aneuploidy, whole sex chromosome loss, chromosome aberrations, Assay Code: DAC-M-F, Evaluation Type: Evaluation A (Pre-1980)) “inactive; negative”; under setting [1], “inactive; negative”. In addition, the mutagenic call (Species/Cell Type: Escherichia coli WP2 UVRA, Assay Type: Tryptophan reverse gene mutation, Assay Code: WPU-*, Activation: With metabolic activation, Evaluation Type: Evaluation A (Pre-1980)) is “inactive; negative”; the mutagenic call (Species/Cell Type: Escherichia coli polA (W3119 vs P3478), Assay Type: Rec-assay, DNA effects (bacterial DNA repair), Assay Code: RE1+, Evaluation Type: Evaluation A (Pre-1980)) was “active; positive”; the mutagenic call (Species/Cell Type: Human diploid fibroblasts, Assay Type: Unscheduled DNA synthesis (UDS) in vitro, DNA effects, Assay Code: UDH-, Evaluation Type: Evaluation A (Pre-1980)) was “inactive; negative”; the mutagenic call (Species/Cell Type: Human lymphocytes or leukocytes, Assay Type: Chromosome aberrations in vitro, Assay Code: CY7+, Evaluation Type: Evaluation A (Pre-1980)) was “active; positive”; the mutagenic call under setting [2] was “active; positive”; the mutagenic call under setting [3] is “active; positive”. The mutagenic call (Species/Cell Type: Mammalian polychromatic erythrocytes, Assay Type: Micronucleus test, chromosome aberrations, Assay Code: MNTT, Evaluation Type: Evaluation A (Pre-1980)) was “no conclusion”; the mutagenic call (Species/Cell Type: Nonhuman bone marrow, Assay Type: Chromosome aberrations, in vivo, Assay Code: CY#+, Evaluation Type: Evaluation A (Pre-1980)) is “active; positive”; the mutagenic call (Species/Cell Type: Saccharomyces cerevisiae, Assay Type: Mitotic recombination or gene conversion, Assay Code: YEC+, Evaluation Type: Evaluation A (Pre-1980)) is “active; positive”; the mutagenic call (Species/Cell Type: Saccharomyces cerevisiae, Assay Type: Mitotic recombination or gene conversion, Assay Code: YEH+, Evaluation Type: Evaluation A (Pre-1980)) is “active; positive”; the mutagenic call (Species/Cell Type: Saccharomyces cerevisiae, Assay Type: Mitotic recombination or gene conversion, Assay Code: YEH-, Evaluation Type: Evaluation A (Pre-1980)) is “inactive; negative”; the mutagenic call (Species/Cell Type: Salmonella typhimurium (one or more of the five standard strains: TA98, TA100, TA1535, TA1537, and TA1538), Assay Type: Histidine reverse gene mutation, Ames assay, Assay Code: SAL-, Evaluation Type: Evaluation A (Pre-1980)) was “inactive; negative”. Moreover, the mutagenic call runs as follows: (Species/Cell Type: Salmonella typhimurium (one or more of the five standard strains: TA98, TA100, TA1535, TA1537, and TA1538), Assay Type: Histidine reverse gene mutation, Ames assay, Assay Code: SALT, Evaluation Type: Evaluation A (Pre-1980)) “no conclusion”; (Species/Cell Type: Salmonella typhimurium, Saccharomyces cerevisiae, Assay Type: Forward and reverse gene mutation, mitotic recombination and gene conversion, DNA effects, host-mediated assay, Assay Code: HM3-, Evaluation Type: Evaluation A (Pre-1980)) “inactive; negative”; (Species/Cell Type: Vicia faba, Assay Type: Chromosome aberrations, Assay Code: VIC+, Evaluation Type: Evaluation A (Pre-1980)) “active; positive”. The call under setting [4] is on record as “no conclusion”.
For `[Hg][c]1ccccc1`, the mutagenic call (Species/Cell Type: Allium cepa, Assay Type: Chromosome aberrations, Assay Code: ALC+D, Dose Response: With dose response, Evaluation Type: Evaluation A (Pre-1980)) is “active; positive”.
`CCCCOc1ccc(CC(=O)NOC(=O)CC)cc1`: the mutagenic call (Species/Cell Type: Nonhuman, Assay Type: Sister-chromatid exchange (SCE) in vitro, Assay Code: SC2+, Evaluation Type: Evaluation B (Post-1980)) is “active; positive”.
Consider `COc1cc([N+](=O)[O-])c2ncccc2c1`, for which the mutagenic call (Species/Cell Type: Salmonella typhimurium (one or more of the five standard strains: TA98, TA100, TA1535, TA1537, and TA1538), Assay Type: Histidine reverse gene mutation, Ames assay, Assay Code: SAL+, Evaluation Type: Evaluation A (Pre-1980)) was “active; positive”.
As for `CN(C)P(=O)(N1CC1)N1CC1`, the mutagenic call runs as follows: (Species/Cell Type: Drosophila melanogaster, Assay Type: Sex-linked recessive lethal gene mutation, Assay Code: SRL+, Evaluation Type: Evaluation A (Pre-1980)) “active; positive”; under setting [2], “active; positive”; under setting [3], “active; positive”; (Species/Cell Type: Nonhuman, Assay Type: Chromosome aberrations in vitro, Assay Code: CY&+, Evaluation Type: Evaluation A (Pre-1980)) “active; positive”; (Species/Cell Type: Schizosaccharomyces pombe, Assay Type: Reverse gene mutation, Assay Code: YEZ+, Evaluation Type: Evaluation A (Pre-1980)) “active; positive”.
With `CC1=C(/C=C/C(C)=C/C=C/C(C)=C/C=O)C(C)(C)CCC1`, where the note is “Species/Cell Type: Nonhuman, Assay Type: Sister-chromatid exchange (SCE) in vitro, Assay Code: SC2T, Evaluation Type: Evaluation B (Post-1980)”, the mutagenic call is recorded as “no conclusion”.
On to `O=C(CCc1ccc([N+](=O)[O-])o1)NC1CCCCC1`, for which the mutagenic call (Species/Cell Type: Neurospora crassa, Assay Type: Forward gene mutation, Assay Code: NEF-, Evaluation Type: Evaluation A (Pre-1980)) was “inactive; negative”.
As for `COc1ccc(Cn2ccnc2/C=C/c2ccc([N+](=O)[O-])o2)cc1`, the mutagenic call (Species/Cell Type: Neurospora crassa, Assay Type: Reverse gene mutation, Assay Code: NER+, Evaluation Type: Evaluation A (Pre-1980)) is “active; positive”.
For `NNc1cc2c(nn1)CCN(C(=O)c1ccccc1)C2`, under setting [5], the mutagenic call is “active; positive”.
`Cc1c2ccccc2cc2c3c(ccc12)C=C[C@@H](O)[C@@H]3O`: the mutagenic call is, setting by setting: (Species/Cell Type: Mouse prostate cells, Assay Type: Cell transformation, Assay Code: CTM+, Evaluation Type: Evaluation A (Pre-1980)) “active; positive”; (Species/Cell Type: Nonhuman, Assay Type: Sister-chromatid exchange (SCE) in vitro, Assay Code: SC2+, Evaluation Type: Evaluation A (Pre-1980)) “active; positive”. For the same compound, the call under setting [4] was “no conclusion”.
Take `Nc1ccc(-c2ccc(N)cc2)cc1`: the mutagenic call under setting [1] is “inactive; negative”; the mutagenic call (Species/Cell Type: Escherichia coli polA (W3119 vs P3478), Assay Type: Rec-assay, DNA effects (bacterial DNA repair), Assay Code: RE1T, Evaluation Type: Evaluation A (Pre-1980)) is reported as “no conclusion”; the mutagenic call (Species/Cell Type: Fischer rat embryo (RLV/1706) cells, Assay Type: Cell transformation, viral enhanced, Assay Code: CTR+, Evaluation Type: Evaluation A (Pre-1980)) was “active; positive”; the mutagenic call (Species/Cell Type: Human diploid fibroblasts, Assay Type: Unscheduled DNA synthesis (UDS) in vitro, DNA effects, Assay Code: UDHT, Evaluation Type: Evaluation A (Pre-1980)) is listed as “no conclusion”; the mutagenic call (Species/Cell Type: Human, Assay Type: Sister-chromatid exchange (SCE) in vitro, Assay Code: SC1+D*, Activation: With metabolic activation, Dose Response: With dose response, Evaluation Type: Evaluation B (Post-1980)) was “active; positive”; the mutagenic call (Species/Cell Type: Mammalian polychromatic erythrocytes, Assay Type: Micronucleus test, chromosome aberrations, Assay Code: MNT+, Evaluation Type: Evaluation A (Pre-1980)) was “active; positive”. Moreover, the mutagenic call (Species/Cell Type: Mouse embryo (AKR/ME) cells, Assay Type: Cell transformation, Assay Code: CTK+, Evaluation Type: Evaluation A (Pre-1980)) is “active; positive”; the mutagenic call (Species/Cell Type: Mouse, Sex: Male, Assay Type: Sperm morphology, Assay Code: SPI-, Evaluation Type: Evaluation A (Pre-1980)) is “inactive; negative”; the mutagenic call (Species/Cell Type: Nonhuman, Assay Type: Sister-chromatid exchange (SCE) in vitro, Assay Code: SC2+D*, Activation: With metabolic activation, Dose Response: With dose response, Evaluation Type: Evaluation B (Post-1980)) is “active; positive”; the mutagenic call under setting [5] was “active; positive”; the mutagenic call (Species/Cell Type: Rat primary hepatocytes, Assay Type: Unscheduled DNA synthesis (UDS) in vitro, DNA effects, Assay Code: UDP+, Evaluation Type: Evaluation A (Pre-1980)) is “active; positive”; the mutagenic call (Species/Cell Type: Salmonella typhimurium (one or more of the five standard strains: TA98, TA100, TA1535, TA1537, and TA1538), Assay Type: Histidine reverse gene mutation, Ames assay, Assay Code: SAL+*, Activation: With metabolic activation, Evaluation Type: Evaluation A (Pre-1980)) is “active; positive”. Also, the mutagenic call is, setting by setting: (Species/Cell Type: Syrian hamster embryo (SA7/SHE) cells, Assay Type: Cell transformation, viral enhanced, Assay Code: CT7+, Evaluation Type: Evaluation A (Pre-1980)) “active; positive”; (Species/Cell Type: Syrian hamster embryo (SHE) cells, Assay Type: Cell transformation, clonal assay, Assay Code: CTC+, Evaluation Type: Evaluation A (Pre-1980)) “active; positive”; (Species/Cell Type: Tradescantia species, Assay Type: Gene mutation, Assay Code: TRM+D, Dose Response: With dose response, Evaluation Type: Evaluation A (Pre-1980)) “active; positive”. Also, the call (Species/Cell Type: Nonhuman, Assay Code: CCG+, Evaluation Type: Evaluation A (Pre-1980)) was “active; positive”.
